Source: patent US11331290B2, “Niclosamide for the treatment of cancer metastasis” (Max-Delbrück-Centrum für Molekulare Medizin in der …, priority 2011, dated 2022)

Key:
HCT116-CMVp-LUC cells = assay: HCT116-CMVp-LUC intrasplenic xenograft: liver metastasis, tumor growth, overall survival; type: in vivo, mice; details: for median survival: control 24 days
Method: All experiments were performed in accordance with the UKCCCR guidelines and approved by the responsible local authorities (State Office of Health and Social Affairs, Berlin, Germany). HCT116-CMVp-LUC cells (3×10^6 cells per mouse, resuspended in 50 μL PBS) were intrasplenically transplanted into 6-week-old female nonobese diabetic-severe combined immunodeficiency (NOD-SCID) mice. Mice were randomly assigned to 3 groups and reatment of mice started 24 hours after cell transplantation. Mice of the control group (n=9) were treated with daily doses of solvent. Mice of the second group (n=9) were daily treated intraperitoneally with 20 mg per kg niclosamide. Mice of the third group (n=9) were treated intraperitoneally with two doses of 15 mg per kg niclosamide per day. The experimental endpoint was reached when mice appeared moribund and/or the spleen tumor was palpable. This was the case with the majority of control mice on day 24. For long-term in vivo experiments mice randomly assigned to 3 groups. Mice of the control group (n=6) were treated intraperitoneally with daily doses of solvent. Mice of the second group (n=6) were daily treated intraperitoneally with 20 mg per kg niclosamide. Mice of the third group (n=6) were daily treated intraperitoneally for 24 days with 20 mg per kg niclosamide and for the residual days with solvent. Mice were killed by cervical dislocation when tumor reached the maximum in accordance with the local authorities.
Spleen (as the transplantation site) and liver (as a metastasis target organ) were removed. The amount of S100A4 mRNA in the tumor was determined by Trizol RNA isolation of tumor cryosections and quantitative real-time RT-PCR. The level of metastasis was evaluated by scoring. For each liver, a score was calculated as the sum of the volumes of the individual metastases. For each metastasis the formula [width2]×length was applied.
For in vivo luminescence imaging mice were anesthetized with 35 mg per kg Hypnomidate (Jassen-Cilag, Neuss, Germany) and received intraperitoneally 150 mg per kg D-luciferin (Biosynth, Staad, Switzerland) dissolved in sterile PBS. Imaging was performed with the NightOWL LB 981 system (Berthold Technologies, Bad Wildbad, Germany) with exposure times of 1 second and 20 seconds. ImageJ version 2.3 was used for color coding of signal intensity (presenting a 256 grayscale) and overlay pictures.
All calculations and statistical analyses were performed with GraphPad Prism version 4.01. Student t test was used for comparison of only two groups. One-way analysis of variance (ANOVA) was applied for comparing the control group with several treated groups followed by Bonferroni post hoc multiple comparisons. In cell cytotoxicity assay the half-maximal effective concentration to which cell viability was reduced to 50% (EC50) values were calculated by sigmoidal dose-response curve fit of x=log(x) transformed data. Kaplan-Meier analysis was used to plot overall survival and differences in curves were analyzed by Logrank test. All tests were two-sided, and P values less than 0.05 were considered to be statistically significant. If not stated otherwise, means are reported with 95% confidence interval.
(A) In vivo luminescence imaging of metastasis under niclosamide treatment. HCT116-CMVp-LUC cells stably expressing firefly luciferase (LUC) were intrasplenically transplanted into mice (per group n=4) followed by daily intraperitoneal treatment with 20 mg per kg niclosamide. For luminescence imaging, mice were anesthetized at the indicated days and received intraperitoneally D-luciferin. Exposure time for lateral and ventral imaging was 20 seconds per picture. In situ imaging and imaging of isolated organs was performed for 1 second per picture exposure time. Signal intensity of grayscale images (256 scale) were color coded (from low to high signal intensity: blue, green, yellow, red, white) and overlayed with bright field picture. […]

DLD-1 cells = assay: Boyden chamber transwell migration assay; type: cell-based, human; details: 1 μM, 24 h
Method: (§1) HCT116, SW620, LS174T, SW480 and DLD-1 cells were used in cell migration and invasion analysis performed with Boyden chamber assay. 400 μL containing 2.5×10^5 cells were seeded into each transwell chamber with filter membranes of 12.0 μm pore size (Millipore, Schwalbach, Germany). For invasion filter membranes were coated with 50 μL Matrigel (diluted 1:3 in RPMI-1640; BD Biosciences) 10 minutes before cells were seeded. Fresh medium (600 μL) were added to the bottom chamber and cells were allowed to attach to the insets for 15 hours. Both chambers were treated with 1 μM niclosamide or the respective amount of DMSO and incubated at 37° C. and 5% CO2 in a humidified incubator for 24 hours. Afterwards insets were removed and cells that had migrated through the membrane to the lower chamber were trypsinized and counted in a Neubauer chamber (LO-Laboroptik, Bad Homburg, Germany). Each well was counted ten times. Each migration or invasion experiment was performed in duplicate. The average number of migrated or invaded cells was determined for at least three independent experiments.
(§2) (A) S100A4 expression under niclosamide treatment. Cells were treated with 1 μM niclosamide for 24 hours. S100A4 expression was analyzed with qRT-PCR and immunoblot. (B) Cell migration under niclosamide treatment. Migration rates of cells treated with 1 μM niclosamide for 24 hours were determined in a Boyden chamber assay values were normalized to solvent-treated SW620 cells. (C) Cell invasion under niclosamide treatment. Cells were seeded onto Matrigel covered transwells and treated with 1 μM niclosamide for 24 hours. Invaded cells in the lower chamber were counted and normalized to solvent-treated SW620 cells. Differences in solvent vs. niclosamide-treated cells were analyzed by Student's t test. Data represent mean±SE of at least two independent experiments each performed in triplicate. (D) Directed migration under niclosamide treatment. Wounds of 300 μM width were set in a 60% confluent monolayer of cells on day 1. Cells were treated daily with 1 μM niclosamide for 4 days. Microphotographs of day 4 are presented here with black lines indicating margins of the wound on day 1; scale bar represents 200 μM. Directed migration data shown are representatives of three independent experiments. (E) Adhesive cell proliferation under niclosamide treatment. Cells were treated daily with 1 μM niclosamide. The amount of viable cells per well was determined by MTT assay. (F) Anchorage-independent cell growth under niclosamide treatment. Cells were plated as single cells into 0.33% (w/v) agarose and treatment (solvent or 1 μM niclosamide) containing medium. After 7 days colonies were visualized by light microscopy at 10× (overview) and 40× (single colony) magnification. (G) Quantification of colonies formed. Number of colonies (of more than 4 cells) was counted and normalized to solvent-treated SW620 cells. Differences in solvent vs. niclosamide-treated cells were analyzed by Student's t test. Data represent mean mean±SE of at least two independent experiments each performed in duplicates.

SW620 cells = assay: Boyden chamber transwell migration assay; type: cell-based, human; details: 1 μM, 24 h
Method: as §1, §2

LS174T cells = assay: Boyden chamber transwell migration assay; type: cell-based, human; details: 1 μM, 24 h
Method: as §1, §2

SW480 cells = assay: Boyden chamber transwell migration assay; type: cell-based, human; details: 1 μM, 24 h
Method: as §1, §2

## O=C(Nc1ccc([N+](=O)[O-])cc1Cl)c1cc(Cl)ccc1O [niclosamide, 2′,5-dichloro-4′-nitrosalicylanilide]
HCT116-CMVp-LUC cells; 20 mg per kg daily intraperitoneally, 24 days
  liver metastasis score, mean % of control: 37.9%
HCT116-CMVp-LUC cells; 20 mg per kg daily intraperitoneally, day 24
  liver metastasis signal, in vivo luminescence imaging: No or only tiny liver metastasis signals
HCT116-CMVp-LUC cells; 20 mg per kg i.p., continuously and discontinuously, vs solvent-treated animals
  size of liver metastases: clearly reduced
HCT116-CMVp-LUC cells; 20 mg per kg i.p., either continuously or discontinuously, vs solvent-treated mice
  spleen tumor growth: clearly delayed
HCT116-CMVp-LUC cells; 2×15 mg per kg per day intraperitoneally, 24 days
  liver metastasis score, mean % of control: 36.1%
HCT116-CMVp-LUC cells; continuous treatment
  liver metastasis, mean difference control vs treatment: 89.1%
  median survival ratio control vs treatment: 0.56
HCT116-CMVp-LUC cells; continuous treatment (20 mg per kg i.p. daily)
  liver metastasis score, mean % of control: 10.9%
HCT116-CMVp-LUC cells; continuous treatment: 20 mg per kg i.p. daily
  median survival: 43 days
HCT116-CMVp-LUC cells; discontinuous treatment
  liver metastasis, mean difference control vs treatment: 65.1%
  median survival ratio control vs treatment: 0.52
HCT116-CMVp-LUC cells; discontinuous treatment (20 mg per kg i.p. for 24 days, then solvent)
  liver metastasis score, mean % of control: 34.9%
HCT116-CMVp-LUC cells; discontinuous treatment: 20 mg per kg i.p. daily for 24 days, then solvent
  median survival: 46.5 days
DLD-1 cells
  cell migration rate: not further affected
SW620 cells
  migration, mean difference control vs niclosamide: 52.1%
SW620 cells; solvent control 100.0%
  cell migration rate, mean % (normalized to solvent-treated SW620 cells): 47.9%
LS174T cells
  migration, mean difference control vs niclosamide: 41.3%
LS174T cells; solvent control 68.2%
  cell migration rate, mean % (normalized to solvent-treated SW620 cells): 26.8%
SW480 cells
  migration, mean difference control vs niclosamide: 11.1%
SW480 cells; solvent control 21.7%
  cell migration rate, mean % (normalized to solvent-treated SW620 cells): 10.6%
